Source: publication PMC11025159 (Journal of Translational Medicine, 2024)
Where two headings read alike, the source gives them in different places.

Assays:
[1] = test system: Panc-2; experiment: MTT cell viability assay Panc-2; format: cell-based; conditions: 48 h
Experimental: (§1) Cell viability was evaluated using an MTT colorimetric assay. Cells were seeded (10^5 cells/mL) in 96-well plates and allowed to grow overnight at 37 ℃ with 5% CO2 in a cell-culture incubator. On the following day, the cells were treated with small molecules at different concentrations (0.2–10 micro-molar) or vehicle (DMSO). Cells were then further incubated for 48 h.

[2] = molecular target: T1, JAK1 (Homo sapiens, UniProt P23458); experiment: Cell-free kinase assay JAK1; format: biochemical
T1 construct: purchased Promega Corporation VA7207
T1 sequence (P23458 whole entry): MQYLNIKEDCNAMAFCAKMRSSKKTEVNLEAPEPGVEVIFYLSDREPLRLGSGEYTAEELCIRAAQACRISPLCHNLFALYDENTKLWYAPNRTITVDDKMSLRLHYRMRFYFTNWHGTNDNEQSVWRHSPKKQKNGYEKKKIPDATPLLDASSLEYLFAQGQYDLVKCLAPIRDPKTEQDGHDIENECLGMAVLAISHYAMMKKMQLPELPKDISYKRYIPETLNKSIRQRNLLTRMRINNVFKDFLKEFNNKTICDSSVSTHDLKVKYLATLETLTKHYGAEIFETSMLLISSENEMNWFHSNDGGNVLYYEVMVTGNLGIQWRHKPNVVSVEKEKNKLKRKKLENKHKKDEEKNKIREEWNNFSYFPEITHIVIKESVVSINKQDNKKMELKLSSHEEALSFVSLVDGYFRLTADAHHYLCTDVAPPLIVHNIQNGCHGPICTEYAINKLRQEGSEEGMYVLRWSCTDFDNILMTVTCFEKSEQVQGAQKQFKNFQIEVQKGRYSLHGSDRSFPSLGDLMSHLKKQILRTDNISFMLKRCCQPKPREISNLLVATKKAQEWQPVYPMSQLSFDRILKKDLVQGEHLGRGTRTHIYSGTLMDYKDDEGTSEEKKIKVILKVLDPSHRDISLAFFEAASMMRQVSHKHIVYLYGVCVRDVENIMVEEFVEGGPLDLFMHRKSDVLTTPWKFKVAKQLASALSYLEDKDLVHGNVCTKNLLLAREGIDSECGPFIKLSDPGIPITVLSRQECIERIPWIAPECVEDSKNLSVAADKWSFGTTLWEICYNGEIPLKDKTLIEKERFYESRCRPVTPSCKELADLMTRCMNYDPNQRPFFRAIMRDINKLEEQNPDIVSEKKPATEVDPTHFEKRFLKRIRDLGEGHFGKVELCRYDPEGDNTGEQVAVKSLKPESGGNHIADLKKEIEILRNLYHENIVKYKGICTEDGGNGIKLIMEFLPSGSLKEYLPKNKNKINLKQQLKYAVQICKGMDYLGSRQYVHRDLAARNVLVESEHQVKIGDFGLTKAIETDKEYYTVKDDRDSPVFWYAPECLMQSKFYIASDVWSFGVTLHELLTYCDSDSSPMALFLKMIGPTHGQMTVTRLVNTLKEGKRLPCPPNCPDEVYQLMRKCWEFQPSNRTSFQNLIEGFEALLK
Experimental: (§2) The cell-free kinase assays of small molecules were determined by following the manufacturer-recommended protocols. Different concentrations in triplicate were used to determine the IC50 value of the hit molecules (active molecules). For data analysis, GraphPad Prism V9.5 Software and a sigmoidal dose–response (variable slope) equation were used. Each value represents an average of three replicates per concentration.

[3] = molecular target: T2, PI-3-K δ (Homo sapiens, UniProt O00329); experiment: Cell-free kinase assay PI-3-K δ; format: biochemical; conditions: Km ATP
T2 construct: purchased Promega Corporation V1690
T2 sequence (O00329 whole entry): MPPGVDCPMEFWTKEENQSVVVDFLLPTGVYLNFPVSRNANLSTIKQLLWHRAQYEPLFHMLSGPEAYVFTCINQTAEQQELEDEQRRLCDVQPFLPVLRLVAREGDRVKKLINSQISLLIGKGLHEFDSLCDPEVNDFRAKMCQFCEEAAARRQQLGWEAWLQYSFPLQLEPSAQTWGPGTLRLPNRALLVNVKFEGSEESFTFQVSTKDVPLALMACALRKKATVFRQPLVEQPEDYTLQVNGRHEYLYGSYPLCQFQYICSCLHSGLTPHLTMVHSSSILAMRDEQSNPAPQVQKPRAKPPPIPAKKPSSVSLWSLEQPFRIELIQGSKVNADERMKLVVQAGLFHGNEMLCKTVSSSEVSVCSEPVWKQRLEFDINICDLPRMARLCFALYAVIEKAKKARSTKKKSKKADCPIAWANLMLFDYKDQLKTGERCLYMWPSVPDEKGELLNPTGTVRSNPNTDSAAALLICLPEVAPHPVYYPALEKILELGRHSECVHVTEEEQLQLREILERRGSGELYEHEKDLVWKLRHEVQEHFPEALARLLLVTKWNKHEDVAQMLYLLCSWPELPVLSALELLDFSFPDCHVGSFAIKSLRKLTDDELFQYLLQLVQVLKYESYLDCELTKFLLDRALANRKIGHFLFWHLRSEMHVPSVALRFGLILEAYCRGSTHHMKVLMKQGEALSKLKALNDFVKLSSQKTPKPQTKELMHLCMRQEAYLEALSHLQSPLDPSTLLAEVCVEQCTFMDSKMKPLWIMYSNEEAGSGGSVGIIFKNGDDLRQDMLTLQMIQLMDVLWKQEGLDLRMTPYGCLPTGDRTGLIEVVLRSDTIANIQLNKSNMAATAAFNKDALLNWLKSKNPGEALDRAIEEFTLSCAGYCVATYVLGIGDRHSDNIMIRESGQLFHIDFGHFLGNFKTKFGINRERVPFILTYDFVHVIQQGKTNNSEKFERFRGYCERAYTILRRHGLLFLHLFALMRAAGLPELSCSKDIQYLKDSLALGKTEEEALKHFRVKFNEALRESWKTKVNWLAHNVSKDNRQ
T2 sequence (P27986 whole entry partner): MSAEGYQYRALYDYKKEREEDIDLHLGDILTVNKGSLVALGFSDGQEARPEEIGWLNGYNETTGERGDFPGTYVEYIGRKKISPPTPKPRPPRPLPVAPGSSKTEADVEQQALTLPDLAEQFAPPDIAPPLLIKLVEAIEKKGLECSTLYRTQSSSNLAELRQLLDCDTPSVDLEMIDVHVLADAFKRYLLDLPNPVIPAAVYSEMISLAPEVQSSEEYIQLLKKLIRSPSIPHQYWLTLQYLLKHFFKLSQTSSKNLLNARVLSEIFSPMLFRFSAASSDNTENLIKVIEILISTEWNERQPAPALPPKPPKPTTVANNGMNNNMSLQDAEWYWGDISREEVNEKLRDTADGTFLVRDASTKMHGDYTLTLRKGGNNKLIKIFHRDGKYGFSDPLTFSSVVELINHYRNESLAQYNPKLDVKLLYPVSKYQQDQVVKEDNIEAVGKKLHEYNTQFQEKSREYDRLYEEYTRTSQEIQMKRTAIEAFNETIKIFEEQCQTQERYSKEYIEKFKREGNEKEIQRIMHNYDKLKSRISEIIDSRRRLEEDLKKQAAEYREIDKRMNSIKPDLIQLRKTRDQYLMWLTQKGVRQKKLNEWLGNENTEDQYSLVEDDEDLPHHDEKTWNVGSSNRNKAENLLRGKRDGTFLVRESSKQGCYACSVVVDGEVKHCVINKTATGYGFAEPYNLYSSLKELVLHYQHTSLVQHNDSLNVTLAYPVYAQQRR
Experimental: as §2

[4] = test system: A549; experiment: MTT cell viability assay A549; format: cell-based, human; conditions: Homo sapiens, A549, 48 h
Experimental: as §1

[5] = test system: Murine macrophages (J774a.1); experiment: Cytokines from LPS primed macrophages (ELISA); format: cell-based; conditions: dose-dependent
Experimental: The supernatant was collected and stored at −20 ℃ for further cytokines analysis. The level of cytokines (TNF-α, IL1-β, and IL-6) was analyzed by sandwich ELISA as per the manufacturer protocol (BD Biosciences). In brief, capture antibodies were coated in the 96-well ELISA plate (Nunc) in respective coating buffer at 4 ℃ overnight. The plate was washed 4 times with washing buffer and blocked with the recommended blocking buffer for 1 h at room temperature. After incubation, plates were washed 4 times, added with sample and standard, and further incubated for another 2 h. Plates were then washed 4 times, added with detection antibody in combination of HRP for 1 h, and finally again washed 5 times. HRP substrate (TMB) was added and allowed to develop observable colour, and the reaction was stopped by adding 2 N H2SO4, and absorbance was recorded at 450 nm with 570 nm correction.

[6] = molecular target: T3, JAK2 (Homo sapiens, UniProt O60674); experiment: Cell-free kinase assay JAK2; format: biochemical; conditions: for IC50: read-out: IC50 JAK 2
T3 construct: purchased BPS Bioscience 79,520
T3 sequence (O60674 whole entry): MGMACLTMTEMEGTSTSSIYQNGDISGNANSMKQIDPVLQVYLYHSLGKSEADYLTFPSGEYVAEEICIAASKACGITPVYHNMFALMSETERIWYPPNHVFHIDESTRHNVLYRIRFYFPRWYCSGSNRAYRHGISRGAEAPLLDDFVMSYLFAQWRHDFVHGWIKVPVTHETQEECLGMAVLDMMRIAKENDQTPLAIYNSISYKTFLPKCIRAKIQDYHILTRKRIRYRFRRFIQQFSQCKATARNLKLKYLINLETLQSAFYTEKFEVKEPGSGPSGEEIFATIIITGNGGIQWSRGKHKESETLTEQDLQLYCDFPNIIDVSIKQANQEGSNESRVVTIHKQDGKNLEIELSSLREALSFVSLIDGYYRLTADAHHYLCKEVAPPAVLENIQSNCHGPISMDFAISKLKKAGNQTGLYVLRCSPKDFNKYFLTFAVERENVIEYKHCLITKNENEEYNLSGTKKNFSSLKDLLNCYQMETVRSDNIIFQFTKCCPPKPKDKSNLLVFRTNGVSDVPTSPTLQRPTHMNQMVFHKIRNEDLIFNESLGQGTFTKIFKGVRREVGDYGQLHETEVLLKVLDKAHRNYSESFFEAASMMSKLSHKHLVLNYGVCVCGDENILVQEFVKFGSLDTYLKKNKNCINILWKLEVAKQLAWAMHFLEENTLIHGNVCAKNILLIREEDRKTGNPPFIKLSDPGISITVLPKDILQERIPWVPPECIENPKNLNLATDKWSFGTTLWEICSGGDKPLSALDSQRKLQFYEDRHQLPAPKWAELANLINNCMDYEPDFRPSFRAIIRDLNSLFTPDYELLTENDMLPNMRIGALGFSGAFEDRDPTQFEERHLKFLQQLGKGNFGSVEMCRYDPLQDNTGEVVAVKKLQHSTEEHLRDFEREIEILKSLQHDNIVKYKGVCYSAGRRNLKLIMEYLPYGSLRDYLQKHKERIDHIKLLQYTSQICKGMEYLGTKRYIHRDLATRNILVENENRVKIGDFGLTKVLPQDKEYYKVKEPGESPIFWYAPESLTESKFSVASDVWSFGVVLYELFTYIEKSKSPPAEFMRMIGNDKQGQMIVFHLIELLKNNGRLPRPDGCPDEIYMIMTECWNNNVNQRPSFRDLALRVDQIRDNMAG
Experimental: as §2

[7] = test system: human hair follicles; experiment: Human hair follicle organ culture ex-vivo; conditions: 20 days culture, vs vehicle and untreated follicles
Experimental: Hair follicles were collected from three single donors of androgenetic alopecia undergoing hair transplant surgery at the Department of Dermatology, All India Institute of Medical Sciences, New Delhi, India. All experimental procedures were approved by the Institutional Ethics Committee […] of AIIMS, New Delhi (IEC approval No: 550/01.09.2023). Donors were above 18 years of age. Isolated hair follicles were cultured as per the previously described method of Philpott et al.. Immediately after isolation, follicles were placed in 24 well plates under sterile conditions into ice-cold Williams’ medium E (Sigma) with the different concentrations of MJ04 for 20 days. Half media was replaced with fresh media every 3rd day for 20 days. Basal length, i.e., length on the day of starting culture and post treatment was measured. Photographs were taken with a Nikon digital camera.

For `Fc1ccc(-c2cnc3[nH]cc(-c4ccnc(NC5CC5)n4)c3c2)cc1` [MJ04], the IC50 [1] was 2.77 µM, the IC50 ([2]; 1mM ATP) was greater than 10 µM and the “Fold of selectivity vs. JAK3” value ([2]; JAK1) was 95. For the same compound, the IC50 ([2]; Km ATP) was 0.193 µM, the IC50 [3] was greater than 10 µM and the IC50 [4] was 3.79 µM. For the same compound, the “level of proinflammatory cytokines TNF-α, IL1-β and IL-6” value [5] was “dampens the level of proinflammatory cytokines”, the IC50 ([6]; 1mM ATP) was greater than 10 µM and the “Fold of selectivity vs. JAK3” value ([6]; JAK 2) was 126. The IC50 ([6]; Km ATP) was 0.256 µM and the “length of hair shafts” value [7] was “significantly increased the length of hair shafts”.
